Measured values from the supplement of paper PMC10307832.

Each cell line was assayed with O=C(Nc1cc(C(F)(F)F)cc(C(F)(F)F)c1)c1cc(Cl)ccc1O [IMD-0354] + CS(=O)(=O)CCNCc1ccc(-c2ccc3ncnc(Nc4ccc(OCc5cccc(F)c5)c(Cl)c4)c3c2)o1 [Lapatinib] (partner 2 µM) (assay: relative viability (nuclei count vs DMSO), 5 days (fraction); higher = more cells survive). Details: first compound 4 µM.
In short: (§1)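 Lung cancer cell lines were pin-tool dosed in 1536-well plates on the day after seeding, with either a lone drug or a fixed anchor-drug dose plus five library-drug doses (not always all listed) in √10 steps. Nuclei were counted on 4× images after 5 days. Relative viability is the ratio of treated-well to vehicle-well nuclei counts, with each value a median of duplicate plates.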
With SW 1573 the relative viability was 0.14. With NCI-H1793 the relative viability was 0.323.

The cell lines below were run with Cc1cnc(CNC(=O)c2c(=O)c3ccc(N4CCCN(C)CC4)nc3n3c2sc2ccccc23)cn1 [CX-5461] + CS(=O)(=O)N1CCN(Cc2cc3nc(-c4cccc5[nH]ncc45)nc(N4CCOCC4)c3s2)CC1 [Pictilisib] (partner 1 µM) in the same assay as above. Details: first compound 0.01 µM.
In short: as §1
With NCI-H2085 the relative viability was 0.551. Work on Calu-6 yielded a relative viability of 1. HCC-366 showed a relative viability of 0.133. NCI-H1666 was tested, and the relative viability was 0.375. In the case of NCI-H596, the relative viability is reported as 0.465. Work on NCI-H1395 yielded a relative viability of 0.568. NCI-H2087 showed a relative viability of 0.887. H3255 showed a relative viability of 0.489. With COR-L23 the relative viability was 0.811. COR-L 105 was tested, and the relative viability was 0.425. With IA-LM the relative viability was 0.337. Cell Line LOU-NH91 has a relative viability of 0.57. NCI-H358 gave a relative viability of 0.29. NCI-H2405 showed a relative viability of 0.427. For HOP-62, the relative viability was 0.592. HCC-44 gave a relative viability of 0.584. A549 was tested, and the relative viability was 0.555. LU99A showed a relative viability of 0.296. Work on BEN yielded a relative viability of 0.662. Work on HARA yielded a relative viability of 0.634. HCC-78 was tested, and the relative viability was 0.187. Work on NCI-H322M yielded a relative viability of 0.578. LCLC-97TM1 gave a relative viability of 0.179. NCI-H2009 showed a relative viability of 0.87. A-427 was tested, and the relative viability was 0.78. For NCI-H661, the relative viability was 0.372. NCI-H1734 gave a relative viability of 0.516. For NCI-H460, the relative viability was 0.462. NCI-H2347 showed a relative viability of 0.769. SW 1573 gave a relative viability of 0.56. Work on NCI-H1793 yielded a relative viability of 0.202.

Same assay, conditions: first compound 0.03162 µM
With NCI-H2085 the relative viability was 0.408. For Calu-6, the relative viability was 1.04. Work on HCC-366 yielded a relative viability of 0.142. NCI-H1666 showed a relative viability of 0.533. NCI-H596 gave a relative viability of 0.406. For NCI-H1395, the relative viability was 0.576. NCI-H2087 showed a relative viability of 1.02. LK-2 gave a relative viability of 0.623. In the case of H3255, the relative viability is reported as 0.554. For COR-L23, the relative viability was 1.15. With COR-L 105 the relative viability was 0.461. For IA-LM, the relative viability was 0.327. For LOU-NH91, the relative viability was 0.497. NCI-H358 gave a relative viability of 0.323. In the case of NCI-H2405, the relative viability is reported as 0.468. Work on HOP-62 yielded a relative viability of 1.16. For HCC-44, the relative viability was 0.877. In the case of A549, the relative viability is reported as 0.525. LU99A showed a relative viability of 0.312. Cell Line BEN has a relative viability of 0.573. HARA was tested, and the relative viability was 0.559. For HCC-78, the relative viability was 0.194. NCI-H322M showed a relative viability of 0.535. LCLC-97TM1 gave a relative viability of 0.172. For NCI-H2009, the relative viability was 0.862. For A-427, the relative viability was 0.868. For NCI-H661, the relative viability was 0.405. NCI-H1734 was tested, and the relative viability was 0.519. NCI-H460 was tested, and the relative viability was 0.338. Cell Line NCI-H2347 has a relative viability of 0.697. SW 1573 was tested, and the relative viability was 0.471. In the case of NCI-H1793, the relative viability is reported as 0.311.

Same assay, conditions: first compound 0.1 µM
Work on NCI-H2085 yielded a relative viability of 0.435. Work on Calu-6 yielded a relative viability of 0.817. HCC-366 was tested, and the relative viability was 0.142. With NCI-H596 the relative viability was 0.372. With NCI-H1395 the relative viability was 0.914. NCI-H2087 was tested, and the relative viability was 1.07. In the case of LK-2, the relative viability is reported as 0.652. Work on H3255 yielded a relative viability of 0.469. COR-L23 showed a relative viability of 0.656. In the case of COR-L 105, the relative viability is reported as 0.352. Work on IA-LM yielded a relative viability of 0.254. With LOU-NH91 the relative viability was 0.528. For NCI-H358, the relative viability was 0.249. NCI-H2405 showed a relative viability of 0.419. HOP-62 was tested, and the relative viability was 0.727. With HCC-44 the relative viability was 0.492. LU99A was tested, and the relative viability was 0.271. BEN gave a relative viability of 0.6. Cell Line HARA has a relative viability of 0.37. HCC-78 was tested, and the relative viability was 0.172. NCI-H322M gave a relative viability of 0.575. LCLC-97TM1 showed a relative viability of 0.188. NCI-H2009 showed a relative viability of 0.635. A-427 gave a relative viability of 0.732. With NCI-H661 the relative viability was 0.377. NCI-H1734 gave a relative viability of 0.503. NCI-H460 was tested, and the relative viability was 0.366. With NCI-H2347 the relative viability was 0.49. With SW 1573 the relative viability was 0.461. NCI-H1793 was tested, and the relative viability was 0.344.

Same assay, conditions: first compound 0.3162 µM
Cell Line NCI-H2085 has a relative viability of 0.514. Work on Calu-6 yielded a relative viability of 0.845. HCC-366 was tested, and the relative viability was 0.0964. With NCI-H1666 the relative viability was 0.337. NCI-H596 was tested, and the relative viability was 0.429. NCI-H1395 gave a relative viability of 0.447. NCI-H2087 was tested, and the relative viability was 0.282. Work on H3255 yielded a relative viability of 0.347. COR-L23 showed a relative viability of 0.65. In the case of COR-L 105, the relative viability is reported as 0.281. With IA-LM the relative viability was 0.33. LOU-NH91 was tested, and the relative viability was 0.452. For NCI-H358, the relative viability was 0.19. With NCI-H2405 the relative viability was 0.259. HOP-62 showed a relative viability of 0.167. Cell Line HCC-44 has a relative viability of 0.644. A549 showed a relative viability of 0.472. LU99A gave a relative viability of 0.289. BEN gave a relative viability of 0.543. HARA gave a relative viability of 0.497. In the case of HCC-78, the relative viability is reported as 0.252. NCI-H2009 showed a relative viability of 0.519. NCI-H661 gave a relative viability of 0.374. With NCI-H1734 the relative viability was 0.317. Work on NCI-H460 yielded a relative viability of 0.108. NCI-H2347 showed a relative viability of 0.562. SW 1573 gave a relative viability of 0.59. NCI-H1793 showed a relative viability of 0.212.

Same assay, conditions: first compound 1 µM
For NCI-H2085, the relative viability was 0.374. In the case of Calu-6, the relative viability is reported as 0.409. Work on HCC-366 yielded a relative viability of 0.162. With NCI-H1666 the relative viability was 0.349. For NCI-H596, the relative viability was 0.344. In the case of NCI-H1395, the relative viability is reported as 0.395. NCI-H2087 was tested, and the relative viability was 0.716. Cell Line LK-2 has a relative viability of 0.492. With H3255 the relative viability was 0.422. For COR-L23, the relative viability was 0.443. With COR-L 105 the relative viability was 0.333. With IA-LM the relative viability was 0.207. Cell Line LOU-NH91 has a relative viability of 0.486. With NCI-H358 the relative viability was 0.316. Work on NCI-H2405 yielded a relative viability of 0.413. HOP-62 gave a relative viability of 0.623. In the case of HCC-44, the relative viability is reported as 0.43. A549 showed a relative viability of 0.0627. LU99A was tested, and the relative viability was 0.173. For BEN, the relative viability was 0.534. Cell Line HARA has a relative viability of 0.267. In the case of HCC-78, the relative viability is reported as 0.212. Work on NCI-H322M yielded a relative viability of 0.464. For LCLC-97TM1, the relative viability was 0.204. For NCI-H2009, the relative viability was 0.815. With A-427 the relative viability was 0.584. Work on NCI-H661 yielded a relative viability of 0.382. For NCI-H1734, the relative viability was 0.341. Work on NCI-H460 yielded a relative viability of 0.2. NCI-H2347 was tested, and the relative viability was 0.665. With SW 1573 the relative viability was 0.452. NCI-H1793 was tested, and the relative viability was 0.402.

The cell lines below were run with Cc1cnc(CNC(=O)c2c(=O)c3ccc(N4CCCN(C)CC4)nc3n3c2sc2ccccc23)cn1 [CX-5461] (assay: relative viability (nuclei count vs DMSO), 5 days (fraction); higher = more cells survive). Details: 0.01 µM.
In short: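 Nuclei counted with MetaXpress define viability as the ratio of treated to vehicle wells, given as a median across plates. The lung cancer cell lines were in 1536-well plates, pinned with five √10-spaced library-drug doses and imaged at 4× after 5 days and Hoechst staining. Plates passed with control CV below 25% and at least one doubling.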
Cell Line NCI-H2085 has a relative viability of 1.07. In the case of Calu-6, the relative viability is reported as 1.08.
